According to patent US8912146B2, “Derivatives of APF and methods of use” (University of Maryland, Baltimore, priority 2008, dated 2014):

What was measured:
[1] = tested on: carcinoma cell lines (WiDr, HeLa, PANC-1, CaOv3, BT474, ACHN, T24, A549); assay: 3H-thymidine incorporation in carcinoma cell lines; assay type: cell-based; details: 48 hrs
Experimental: Ovarian carcinoma (Caov-3), prostate carcinoma (LNCaP), melanoma (Hs839.T), pancreatic carcinoma (PANC-1), bladder carcinoma (T24, RT4 and TCCSuP), kidney carcinoma (ACHN), cervical carcinoma (HeLa), lung carcinoma (A549), colon carcinoma (WiDr), and breast carcinoma (Bt-474) cells were all purchased from the American Type Culture Collection (ATCC). Caov-3, HS839.T, PANC-1, and BT-474 cells were grown in DMEM medium (with 4 mM L-glutamine—Gibco BRL) containing 10% heat-inactivated fetal calf serum, 4.5 g/L glucose, 1.5 g/L sodium bicarbonate and 1% antibiotic/antimycotic solution (all supplements from Sigma except sodium bicarbonate which is from Gibco BRL). LNCaP cells were grown in RPMI medium (with 2 mM L-glutamine—Gibco BRL) containing10% heat-incativated fetal calf serum, 10 mM HEPES buffer, 1 mM sodium pyruvate, 4.5 g/L glucose, 1.5 g/L sodium bicarbonate, and 1% antibiotic/antimycotic solution (all supplements from Sigma except sodium bicarbonate which is from Gibco BRL). […]
Cancer (carcinoma or melanoma) cell proliferation was measured by ^3H-thymidine incorporation into each type of cancer cell, plating 3.0×10^3 cells/well (A549 cells) or 1.5×10^3 cells/well (all other cancer cells) onto a 96 well cell culture plate (VWR 29442-054), in 150 ul/well of the respective normal growth medium for each cell type (see above). […]
(§1) Significance of the difference in mean values between groups was determined by an analysis of variance.
(§2) Cell proliferation was measured by ^3H-thymidine incorporation into each cell type, plating cells in […] of their respective medium (see above) onto a 96-well cell culture plate (Corning, N.Y.) at a predetermined optimal cell density for APF inhibition of cell proliferation: Caov-3, PANC-1, T24, HeLa, and HS839.T cells were plated at a density of 1.5×10^3 cells/well; A549 cells were plated at a density of 3×10^3 cells/well. […] Cells were then incubated at 37° C. in a 5% CO2 atmosphere for 48 hours, after which cell contents were harvested, methanol-fixed onto glass fiber filter paper, and the amount of radioactivity incorporated determined. […]

[2] = tested on: Hs839.T melanoma cells; assay: 3H-thymidine incorporation in melanoma cells; assay type: cell-based
Experimental: Ovarian carcinoma (Caov-3), prostate carcinoma (LNCaP), melanoma (Hs839.T), pancreatic carcinoma (PANC-1), bladder carcinoma (T24, RT4 and TCCSuP), kidney carcinoma (ACHN), cervical carcinoma (HeLa), lung carcinoma (A549), colon carcinoma (WiDr), and breast carcinoma (Bt-474) cells were all purchased from the American Type Culture Collection (ATCC). Caov-3, HS839.T, PANC-1, and BT-474 cells were grown in DMEM medium (with 4 mM L-glutamine—Gibco BRL) containing 10% heat-inactivated fetal calf serum, 4.5 g/L glucose, 1.5 g/L sodium bicarbonate and 1% antibiotic/antimycotic solution (all supplements from Sigma except sodium bicarbonate which is from Gibco BRL). LNCaP cells were grown in RPMI medium (with 2 mM L-glutamine—Gibco BRL) containing10% heat-incativated fetal calf serum, 10 mM HEPES buffer, 1 mM sodium pyruvate, 4.5 g/L glucose, 1.5 g/L sodium bicarbonate, and 1% antibiotic/antimycotic solution (all supplements from Sigma except sodium bicarbonate which is from Gibco BRL). T24 and RT4 cells were grown in McCoy's 5A medium (Gibco BRL) containing 10% heat-inactivated fetal calf serum, 1% L-glutamine, 2.2 g/L sodium bicarbonate, and 1% antibiotic/antimycotic solution (all supplements from Sigma except sodium bicarbonate which is from Gibco BRL). TCCSuP, HeLa, and WiDr cells were grown in MEM (Gibco BRL) containing 10% heat-inactivated fetal calf serum, 1% L-glutamine, 1 mM sodium pyruvate, and 1% antibiotic/antimycotic solution (all supplements from Sigma). ACHN cells were grown in the same medium as TCCSuP and HeLa cells with the exception that it also contained 1.5 g/L sodium bicarbonate (Gibco BRL). A549 cells were grown in F12 medium (Gibco BRL) containing 10% heat-inactivated fetal calf serum, 1% L-glutamine, and 1% antibiotic/antimycotic solution (all supplements from Sigma).
Cancer (carcinoma or melanoma) cell proliferation was measured by ^3H-thymidine incorporation into each type of cancer cell, plating 3.0×10^3 cells/well (A549 cells) or 1.5×10^3 cells/well (all other cancer cells) onto a 96 well cell culture plate (VWR 29442-054), in 150 ul/well of the respective normal growth medium for each cell type (see above). All APF congeners were resuspended as described for normal bladder epithelial cells, except using the specific serum-free medium appropriate for each cell type, and the remainder of the assay was performed as described for normal bladder cells, above.
as §1
as §2, with “cells/well. On the next day, cell growth medium was removed and replaced with serum-free medium appropriate for each cell type.” for “cells/well.”

[3] = tested on: Akt/GSK3/beta catenin signaling in T24 bladder carcinoma cells; assay: Western blot / qRT-PCR of Akt/GSK3/beta catenin signaling in T24 cells; assay type: cell-based; details: 50 nM
Experimental: Gene expression was determined by quantitative RT-PCR, and specific protein expression or phosphorylation was determined by Western blot. p53 mRNA and protein expression served as positive controls for APF activity. Beta actin expression served as a standard control for Western blot analyses (see FIGS. 38-40).

[4] = tested on: primary normal human bladder epithelial cells; details: Keay et al., 2004; cited from earlier work
[5] = nonelectroporated T24 control cells, p<0.05

Which “inhibition of carcinoma cell line proliferation” value ([1]; compared to cell medium alone (p<0.00001)) does the source give for CC(=O)NC1C(O[C@@H]2OC(CO)[C@H](O)C(O)C2O)[C@@H](O)C(CO)O[C@@H]1OC(C)[C@H](N)C(=O)NC(C(=O)N1CCC[C@H]1C(=O)NC(C)C(=O)N[C@@H](C)C(=O)NC(C(=O)N[C@H](C(=O)NC(C(=O)N[C@@H](C)C(=O)O)C(C)C)C(C)C)C(C)C)C(C)C (stereo partly drawn) [Derivative 1, Galβ1-3GalNAcα-O-TVPAAVVVA] here?
The value was “significantly inhibited proliferation”.

What about the “IC50 in carcinoma cell lines” value ([1]; listed as as-APF) of the same compound?
Its value is “low to mid nanomolar range”.

What about the “inhibition of melanoma cell proliferation” value ([2]; 48 hrs, compared to cell medium alone (p<0.00001)) of the same compound?
Its value is “significantly inhibited proliferation”.

What about the “IC50 in melanoma cells” value ([2]; 48 hrs, listed as as-APF) of the same compound?
The value was “low to mid nanomolar range”.

What about the “inhibitor concentration at which significant inhibition occurred, melanoma cells vs carcinoma cells” value ([2]; listed as as-APF) of the same compound?
Its value is 1-2 orders of magnitude higher.

What about the “inhibitor concentration at which significant inhibition occurred, melanoma cells vs carcinoma cells” value ([2]; listed as asialo-APF) of the same compound?
Its value is 2 orders of magnitude higher.

And the “mRNA and protein expression of total Akt, GSK3beta, beta catenin” value ([3]; T24 cells, p>0.05)?
The value was “neither mRNA nor protein expression of total Akt, GSK3beta, or beta catenin changed significantly”.

What about the “Akt phosphorylation (serine 473 and threonine 308)” value [3, 5] of the same compound?
Its value is “significantly decreased”.

What about the “GSK3beta phosphorylation (tyrosine 216)” value [3, 5] of the same compound?
Its value is “significantly decreased”.

And the “beta catenin phosphorylation (serine 33/37 and threonine 41)” value [3, 5]?
The value was “significantly increased”.

And the “beta catenin phosphorylation (serine 45)” value [3, 5]?
The value was “significantly decreased”.

And the “activity in biological antiproliferation assays, previously determined” value [4]?
Its value is “essentially equipotent”.
